# Laboratory results as given in US20160280736A1, “CYCLIC PEPTIDE COMPOUND, AND PREPARATION METHOD, PHARMACEUTICAL COMPOSITION AND USE THEREOF” (HANGZHOU GUANYU BIO-MEDICAL CO., LTD., priority 2013, published 2016).
# Read-outs that look alike come from different tables or passages of the source.
# Key:
# [1] = test system: MOLT-4 (human acute lymphoblastic leukemia cells); assay: MTT cancer cell growth inhibition; assay type: cell-based; conditions: 72 hours incubation
# From the text: (§1) MTT assay principle is yellow MTT can penetrate membrane into the cell, succinic dehydrogenase of the mitochondria in living cells can make exogenous MTT reduction of insoluble in water of blue-violet acicular formazan for crystallization and deposition in the cell, crystallization can be dissolved dimethyl sulfoxide (DMSO) solution, detected its absorbance at 490 nm/570 nm wavelength by enzyme-linked immunosorbent assay, which can reflect the number of cells.
# (§2) Using DMEM+10% FBS culture medium or using 1640+10% FBS culture, respectively.
# (§3) Experimental group: 190 μl cell suspension+10 μl different concentrations of drugs (the final concentration is 10^−5˜10^−10 M)
# (§4) a) Cells were seeded in 96-well plates with the inoculation of 1500/well, 190 μl/hole, 37° C., 5% of CO2 incubator overnight;
# (§5) b) The next day each well was added 10 μl of different drugs. The final concentration of drug was 10^−5˜10^−10 M, three parallel holes; 37° C., 5% CO2 culture incubator for 72 hours incubation;
# (§6) c) Per well was added 20 μl 5 mg/ml of MTT, 37° C., 5% CO2 culture incubator for 4 hours incubation;
# (§7) d) The supernatant was discarded. Each well was added 100 μl of DMSO and oscillation;
# (§8) e) 570 nm readings. Calculate cell viability. GI50 calculation based on the results.
# [2] = test system: N-87 (human gastric cancer cells); assay: MTT cancer cell growth inhibition; assay type: cell-based; conditions: 72 h, N-87 cells, 72 hours incubation
# From the text: as §1, §2, §3, §4, §5, §6, §7, §8
# HDAC7 = target: T1, HDAC7 (Homo sapiens, UniProt Q8WUI4); assay: HDAC biochemical activity measurement (fluorescent substrate deacetylation); conditions: HDAC7 enzyme, 37°, 30 minutes
# T1 sequence (Q8WUI4 1-952): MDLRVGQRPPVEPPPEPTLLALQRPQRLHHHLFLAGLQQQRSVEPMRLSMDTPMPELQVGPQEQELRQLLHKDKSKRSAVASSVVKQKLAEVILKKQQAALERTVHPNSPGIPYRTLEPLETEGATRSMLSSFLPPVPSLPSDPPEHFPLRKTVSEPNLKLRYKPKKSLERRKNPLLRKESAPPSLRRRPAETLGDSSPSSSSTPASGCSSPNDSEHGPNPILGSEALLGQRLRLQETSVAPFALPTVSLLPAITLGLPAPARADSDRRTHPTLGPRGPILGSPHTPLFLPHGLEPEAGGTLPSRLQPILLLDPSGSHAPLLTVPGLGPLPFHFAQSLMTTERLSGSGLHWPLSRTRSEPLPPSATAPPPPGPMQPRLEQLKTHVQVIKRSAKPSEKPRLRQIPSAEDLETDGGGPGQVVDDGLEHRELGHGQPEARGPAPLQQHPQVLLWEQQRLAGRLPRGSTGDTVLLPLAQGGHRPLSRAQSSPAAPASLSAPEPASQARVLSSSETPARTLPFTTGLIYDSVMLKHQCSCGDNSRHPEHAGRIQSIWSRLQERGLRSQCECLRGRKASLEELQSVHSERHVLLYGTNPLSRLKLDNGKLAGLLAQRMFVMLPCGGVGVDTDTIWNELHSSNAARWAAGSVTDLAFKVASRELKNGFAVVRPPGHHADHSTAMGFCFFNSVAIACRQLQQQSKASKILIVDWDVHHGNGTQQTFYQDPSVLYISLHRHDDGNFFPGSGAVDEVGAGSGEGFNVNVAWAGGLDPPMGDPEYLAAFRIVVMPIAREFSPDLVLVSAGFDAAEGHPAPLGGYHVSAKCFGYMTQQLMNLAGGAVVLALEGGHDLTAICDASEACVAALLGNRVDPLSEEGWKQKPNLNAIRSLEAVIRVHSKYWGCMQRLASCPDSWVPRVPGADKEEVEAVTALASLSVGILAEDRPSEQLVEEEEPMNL
# Description: Measurement principle: The chemical activity of the compound is determined according to the degree of deacetylation inhibition of the HDAC enzyme. […] After the substrate containing an acetylated lysine side chain and HDAC enzyme are labeled with a fluorescent label, the fluorescent substrate is de acetyl. The fluorescent labeled substrate is cleaved by the enzyme, and the fluorescent substance is released, which generates 460 nm emission light under the excitation of 360 nm light.
# (§9) Specific steps: HDAC substrate was diluted with reaction buffer to 200M (reaction concentration of 20M), the HDAC enzyme was diluted to the appropriate concentration, then added different concentrations of the test compounds and acted at 37 ? 30 minutes, and then added the same volume of 2-times concentration substrate developing solution (developer), incubated at room temperature for 15 minutes. Finally, the last reading measured with a microplate plate reader, excitation light was 360 nm, the emitted light was 460 nm, data processing software was Prime 4, and the results are shown in Table 1.
# [3] = test system: A549 (human lung cancer cells); assay: MTT cancer cell growth inhibition; assay type: cell-based; conditions: 72 hours incubation
# From the text: as §1, §2, §3, §4, §5, §6, §7, §8
# [4] = test system: HT1080 (human fibrosarcoma cells); assay: MTT cancer cell growth inhibition; assay type: cell-based; conditions: 72 hours incubation
# From the text: as §1, §2, §3, §4, §5, §6, §7, §8
# [5] = test system: PANC-1 (Pac-1, human pancreatic cancer cells); assay: MTT cancer cell growth inhibition; assay type: cell-based; conditions: 72 hours incubation
# From the text: as §1, §2, §3, §4, §5, §6, §7, §8
# [6] = test system: BGC-823 (human gastric cancer cells); assay: MTT cancer cell growth inhibition; assay type: cell-based; conditions: 72 hours incubation
# From the text: as §1, §2, §3, §4, §5, §6, §7, §8
# [7] = test system: Hela (human cervical cancer cells); assay: MTT cancer cell growth inhibition; assay type: cell-based; conditions: 72 hours incubation
# From the text: as §1, §2, §3, §4, §5, §6, §7, §8
# [8] = test system: DU145 (human prostate cancer cells); assay: MTT cancer cell growth inhibition; assay type: cell-based; conditions: 72 hours incubation
# From the text: as §1, §2, §3, §4, §5, §6, §7, §8
# [9] = test system: lncap (prostate cancer cells); assay: MTT cancer cell growth inhibition; assay type: cell-based; conditions: 72 hours incubation
# From the text: as §1, §2, §3, §4, §5, §6, §7, §8
# HDAC3 = HDAC3 (Homo sapiens, UniProt O15379); assay: HDAC biochemical activity measurement (fluorescent substrate deacetylation); conditions: IC50 (μM) HDAC3, HDAC3 enzyme, 37°, 30 minutes
# Description: (§10) Measurement principle: The chemical activity of the compound is determined according to the degree of deacetylation inhibition of the HDAC enzyme. This experiment measured the degree of deacetylation related to tumor proliferation and metastasis of HDAC1, HDAC2, HDAC3, HDAC8, HDAC11 five subtypes HDAC enzymes. After the substrate containing an acetylated lysine side chain and HDAC enzyme are labeled with a fluorescent label, the fluorescent substrate is de acetyl. The fluorescent labeled substrate is cleaved by the enzyme, and the fluorescent substance is released, which generates 460 nm emission light under the excitation of 360 nm light.
# as §9
# HDAC2 = HDAC2 (Homo sapiens, UniProt Q92769); assay: as above; conditions: HDAC2 enzyme, 37°, 30 minutes
# Description: as §10, §9
# HDAC11 = target: T2, HDAC11 (Homo sapiens, UniProt Q96DB2); assay: as above; conditions: IC50 (μM) HDAC11, HDAC11 enzyme, 37°, 30 minutes
# T2 sequence (Q96DB2 1-347): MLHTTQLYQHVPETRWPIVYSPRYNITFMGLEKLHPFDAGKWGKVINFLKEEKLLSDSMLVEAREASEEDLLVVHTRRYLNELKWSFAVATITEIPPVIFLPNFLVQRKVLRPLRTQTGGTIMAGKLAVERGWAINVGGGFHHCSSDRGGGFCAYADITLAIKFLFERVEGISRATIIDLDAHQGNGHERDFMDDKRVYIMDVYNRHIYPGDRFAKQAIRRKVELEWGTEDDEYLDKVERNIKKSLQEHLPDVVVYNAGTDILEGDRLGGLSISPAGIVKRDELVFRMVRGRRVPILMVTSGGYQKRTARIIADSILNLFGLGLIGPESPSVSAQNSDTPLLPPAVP
# Description: as §10, §9
# HDAC8 = target: T3, HDAC8 (Homo sapiens, UniProt Q9BY41); assay: as above; conditions: HDAC8 enzyme, 37°, 30 minutes
# T3 sequence (Q9BY41 1-377): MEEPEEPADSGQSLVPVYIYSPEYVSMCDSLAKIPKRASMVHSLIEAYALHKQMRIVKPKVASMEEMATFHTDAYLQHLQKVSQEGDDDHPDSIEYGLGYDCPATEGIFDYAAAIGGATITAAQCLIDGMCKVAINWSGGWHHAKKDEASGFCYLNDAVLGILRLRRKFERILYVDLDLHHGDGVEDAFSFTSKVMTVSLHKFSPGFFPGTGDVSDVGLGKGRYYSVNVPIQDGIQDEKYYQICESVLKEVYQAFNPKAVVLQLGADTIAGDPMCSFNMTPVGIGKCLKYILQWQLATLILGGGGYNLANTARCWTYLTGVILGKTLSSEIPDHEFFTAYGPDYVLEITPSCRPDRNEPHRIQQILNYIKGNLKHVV
# Description: as §10, §9
# HDAC1 = HDAC1 (Homo sapiens, UniProt Q13547); assay: as above; conditions: HDAC1 enzyme, 37°, 30 minutes
# Description: as §10, §9
# [10] = test system: U937 (human leukemia cells); assay: MTT cancer cell growth inhibition; assay type: cell-based; conditions: 72 hours incubation
# From the text: as §1, §2, §3, §4, §5, §6, §7, §8
# [11] = test system: MCF-7 (human breast cancer cells); assay: MTT cancer cell growth inhibition; assay type: cell-based; conditions: 72 hours incubation, MCF-7 cells
# From the text: as §1, §2, §3, §4, §5, §6, §7, §8
# [12] = Homo sapiens, LNCaP, 72 h, lncap cells, read-out: GI50 lncap
# [13] = MOLT-4 cells, read-out: GI50 Molt-
# [14] = HT1080 cells, read-out: GI50 HT10
# [15] = PANC-1 cells, read-out: GI50 PAN
# [16] = BGC-823 cells, read-out: GI50 BGC8
# [17] = Hela cells, read-out: GI50 Hela
# [18] = DU145 cells, read-out: GI50 Du14
# [19] = lncap cells, read-out: GI50 lncap
# [20] = A549 cells, read-out: GI50 A549
# Chain of HDAC2 (Q92769 whole entry, species assumed): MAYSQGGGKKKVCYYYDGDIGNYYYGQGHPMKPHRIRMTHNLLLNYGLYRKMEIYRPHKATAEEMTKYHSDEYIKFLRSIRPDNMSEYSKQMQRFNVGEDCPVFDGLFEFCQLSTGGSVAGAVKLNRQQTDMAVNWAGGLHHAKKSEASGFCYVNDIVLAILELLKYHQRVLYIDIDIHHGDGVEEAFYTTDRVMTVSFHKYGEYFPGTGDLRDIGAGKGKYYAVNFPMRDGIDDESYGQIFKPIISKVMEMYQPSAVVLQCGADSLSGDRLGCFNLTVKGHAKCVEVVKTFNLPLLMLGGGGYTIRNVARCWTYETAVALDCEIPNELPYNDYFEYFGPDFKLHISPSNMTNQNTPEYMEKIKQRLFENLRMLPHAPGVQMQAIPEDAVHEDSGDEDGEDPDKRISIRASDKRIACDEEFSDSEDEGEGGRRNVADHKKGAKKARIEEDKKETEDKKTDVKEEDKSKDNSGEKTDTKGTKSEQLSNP
# Chain of HDAC1 (Q13547 whole entry, species assumed): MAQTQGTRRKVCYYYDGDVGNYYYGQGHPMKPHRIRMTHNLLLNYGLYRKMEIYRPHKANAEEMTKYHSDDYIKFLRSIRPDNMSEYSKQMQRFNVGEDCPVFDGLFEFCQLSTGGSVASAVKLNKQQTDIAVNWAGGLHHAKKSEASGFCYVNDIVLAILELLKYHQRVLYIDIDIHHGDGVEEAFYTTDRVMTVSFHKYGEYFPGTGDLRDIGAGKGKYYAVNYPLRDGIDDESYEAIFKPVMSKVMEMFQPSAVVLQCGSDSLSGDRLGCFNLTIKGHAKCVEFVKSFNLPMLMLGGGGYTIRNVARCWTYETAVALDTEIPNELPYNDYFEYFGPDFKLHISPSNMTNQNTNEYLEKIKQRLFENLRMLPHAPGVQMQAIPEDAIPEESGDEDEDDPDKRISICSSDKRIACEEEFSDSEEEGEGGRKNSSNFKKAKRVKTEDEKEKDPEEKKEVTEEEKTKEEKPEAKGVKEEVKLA
# Chain of HDAC3 (O15379 whole entry, species assumed): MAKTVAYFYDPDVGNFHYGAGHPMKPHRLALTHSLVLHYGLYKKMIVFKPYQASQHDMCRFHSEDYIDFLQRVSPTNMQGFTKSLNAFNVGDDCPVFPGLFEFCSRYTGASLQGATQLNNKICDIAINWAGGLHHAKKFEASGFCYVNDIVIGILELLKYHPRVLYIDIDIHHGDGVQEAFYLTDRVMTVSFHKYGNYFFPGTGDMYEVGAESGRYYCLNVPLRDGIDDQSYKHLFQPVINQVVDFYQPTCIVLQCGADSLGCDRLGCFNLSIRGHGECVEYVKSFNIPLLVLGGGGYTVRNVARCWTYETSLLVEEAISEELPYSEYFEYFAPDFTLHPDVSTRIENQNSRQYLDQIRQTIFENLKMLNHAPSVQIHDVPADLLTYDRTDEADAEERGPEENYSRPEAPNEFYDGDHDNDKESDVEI
# Chain of HDAC3 (Q9Y618 395-489 partner limits assumed, species assumed): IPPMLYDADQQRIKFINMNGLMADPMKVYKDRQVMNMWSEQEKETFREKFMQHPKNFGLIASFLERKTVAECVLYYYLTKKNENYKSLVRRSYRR
smiles,measurement,setting,value
C/C=C1\NC(=O)c2cccc(n2)CNC(=O)C[C@@H](/C=C/CCSC(=O)CCCCCCC)OC(=O)[C@H](C(C)C)NC1=O [Compound 1],GI50,"[1]; Homo sapiens, MOLT-4, 72 h, drug concentration required for 50% of cell growth inhibition, read-out: GI50 (μM) Molt-",0.005 µM
C/C=C1\NC(=O)c2nc(ccc2F)CNC(=O)C[C@@H](/C=C/CCSC(C)=O)OC(=O)[C@H](C(C)C)NC1=O [Compound 93],GI50,[2],0.028 µM
C/C=C1\NC(=O)c2ccc(F)c(n2)CNC(=O)C[C@@H](/C=C/CCSC(C)=O)OC(=O)[C@H](C(C)C)NC1=O [Compound 95],GI50,[2],0.023 µM
C/C=C1\NC(=O)c2nc(F)cc(n2)CNC(=O)C[C@@H](/C=C/CCSC(C)=O)OC(=O)[C@H](C(C)C)NC1=O [Compound 98],IC50 (μM) HDAC7,HDAC7,no activity
same,GI50,"[3]; drug concentration required for 50% of cell growth inhibition, read-out: GI50 (μM) A549",0.601 µM
same,GI50,"[1]; drug concentration required for 50% of cell growth inhibition, read-out: GI50 (μM) Molt-",0.025 µM
same,GI50,"[4]; drug concentration required for 50% of cell growth inhibition, read-out: GI50 (μM) HT10",0.083 µM
same,GI50,"[5]; drug concentration required for 50% of cell growth inhibition, read-out: GI50 (μM) PAN",0.083 µM
same,GI50,"[6]; drug concentration required for 50% of cell growth inhibition, read-out: GI50 (μM) BGC8",0.052 µM
same,GI50,"[7]; drug concentration required for 50% of cell growth inhibition, read-out: GI50 (μM) Hela",0.052 µM
same,GI50,"[8]; drug concentration required for 50% of cell growth inhibition, read-out: GI50 (μM) Du14",0.042 µM
same,GI50,"[9]; drug concentration required for 50% of cell growth inhibition, read-out: GI50 (μM) lncap",0.025 µM
C/C=C1\NC(=O)c2ccc(SC)c(n2)CNC(=O)C[C@@H](/C=C/CCSC(=O)CCCC)OC(=O)[C@H](C(C)C)NC1=O [Compound 158],IC50,HDAC3,0.053 µM
same,IC50,HDAC2,0.028 µM
same,IC50,HDAC11,0.092 µM
same,IC50,HDAC8,0.043 µM
same,IC50,HDAC1,0.081 µM
same,GI50,"[3]; Homo sapiens, A549, 72 h, A549 cells, read-out: GI50 A549",0.037 µM
same,GI50,"[4]; Homo sapiens, HT-1080, 72 h, HT1080 cells, read-out: GI50 HT10",0.076 µM
same,GI50,"[5]; Homo sapiens, PANC-1, 72 h, PANC-1 cells, read-out: GI50 PAN",0.023 µM
same,GI50,"[6]; Homo sapiens, BGC-823, 72 h, BGC-823 cells, read-out: GI50 BGC8",0.032 µM
same,GI50,"[10]; Homo sapiens, U-937, 72 h",0.042 µM
same,GI50,"[7]; Homo sapiens, HeLa, 72 h, Hela cells, read-out: GI50 Hela",0.068 µM
same,GI50,"[8]; Homo sapiens, DU-145, 72 h, DU145 cells, read-out: GI50 Du14",0.063 µM
same,GI50,"[11]; Homo sapiens, MCF7, 72 h",0.021 µM
same,GI50,[9]; [12],0.043 µM
C/C=C1\NC(=O)c2nc(cc(SC)n2)CNC(=O)C[C@@H](/C=C/CCSC(C)=O)OC(=O)[C@H](C(C)C)NC1=O [Compound 216],IC50 (μM) HDAC7,HDAC7,no activity
same,GI50,[1]; [13],0.046 µM
same,GI50,[4]; [14],0.058 µM
same,GI50,[5]; [15],0.021 µM
same,GI50,[6]; [16],0.066 µM
same,GI50,[10],0.086 µM
same,GI50,[7]; [17],0.076 µM
same,GI50,[8]; [18],0.029 µM
same,GI50,[11],0.055 µM
same,GI50,[9]; [19],0.016 µM
C/C=C1\NC(=O)c2ncc(SC)c(n2)CNC(=O)C[C@@H](/C=C/CCSC(C)=O)OC(=O)[C@H](C(C)C)NC1=O [Compound 217],IC50 (μM) HDAC7,HDAC7,no activity
same,GI50,[3]; [20],0.072 µM
same,GI50,[1]; [13],0.099 µM
same,GI50,[4]; [14],0.021 µM
same,GI50,[5]; [15],0.073 µM
same,GI50,[6]; [16],0.035 µM
same,GI50,[10],0.091 µM
same,GI50,[8]; [18],0.027 µM
same,GI50,[11],0.063 µM
same,GI50,[9]; [19],0.034 µM
C/C=C1\NC(=O)c2cc(SC)cc(n2)CNC(=O)C[C@@H](/C=C/CCSC(C)=O)OC(=O)[C@H](C(C)C)NC1=O [Compound 224],IC50 (μM) HDAC7,HDAC7,no activity
same,GI50,[3]; [20],0.058 µM
same,GI50,[1]; [13],0.033 µM
same,GI50,[4]; [14],0.095 µM
same,GI50,[6]; [16],0.038 µM
same,GI50,[7]; [17],0.067 µM
same,GI50,[8]; [18],0.051 µM
same,GI50,[11],0.043 µM
same,GI50,[9]; [19],0.034 µM
C/C=C1\NC(=O)c2cccc(n2)CNC(=O)C[C@@H](/C=C/CCSC(=O)CCCCCCC)OC(=O)[C@@H](C)NC1=O [Compound 236],GI50,[9]; [12],0.053 µM
